From US11000033B2, “Ketone or oxime compound, and herbicide” (NISSAN CHEMICAL CORPORATION, priority 2014, dated 2021)

Columns and labels:
Type in all cases: in vivo
Apera spica-venti [1] = assay: Test Example 4: herbicidal effect by soil treatment (symbol L); conditions: application herbicide amount 320 g/ha
Outline: (§1)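 Seeds were sown in sterilized diluvial soil, covered with about 1.5 cm of soil, and the soil surface was sprayed with a water-diluted emulsion of the compound at a predetermined rate. Plants grew in a greenhouse at 25° C. to 30° C.; effects were scored visually 3 weeks after application.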

rice plant = assay: Test Example 5: effect on crop by foliage application, plastic box (symbol b); conditions: 320 g/ha, 3 weeks after application
Outline: (§2)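 Plants were raised from seed in a greenhouse (25° C. to 30° C.) after sowing in a plastic box of sterilized diluvial soil.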

[2] = system: Echinochloa crus-galli var. crus-galli; assay: Test Example 4: herbicidal effect by soil treatment (symbol H); conditions: application herbicide amount 320 g/ha
Outline: as §1

[3] = system: Echinochloa oryzacola Vasing.; assay: Test Example 1: herbicidal activity, application before weed generation in submerged conditions (symbol A); conditions: application herbicide amount 320 g/ha
Outline: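 Compound emulsion was diluted to a set herbicide amount and applied to the water surface on the sowing day, into submerged (4 cm) alluvial-soil pots sown with mixed weed seeds and transplanted 2.5-leaf rice. Pots were held in a 25–30 °C greenhouse, and weeds were scored 0–5 by herbicidal ratio after 3 weeks.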

Setaria viridis = assay: Test Example 5: herbicidal effect by foliage application, plastic box (symbol G); conditions: 320 g/ha, 3 weeks after application
Outline: (§3)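 Effect is rated 3 weeks after a foliar spray of water-diluted emulsion concentrate at a predetermined herbicide amount. Plants had grown 14 days in a 25° C. to 30° C. greenhouse from seed in sterilized diluvial soil.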

beet = assay: Test Example 5: effect on crop by foliage application, plastic box (symbol f); conditions: 320 g/ha, 3 weeks after application
Outline: as §2

[4] = system: Echinochloa crus-galli var. crus-galli; assay: Test Example 3: herbicidal effect by foliage application, Wagner pot (symbol H); conditions: application herbicide amount 320 g/ha
Outline: (§4)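 The compound, formulated as an emulsion and diluted with water to a predetermined rate, is applied uniformly to leaves of two-week-old seedlings growing in submerged alluvial soil at 25–30 °C. Rice is included. Each plant is assessed 3 weeks later using defined criteria.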

[5] = system: Echinochloa oryzacola Vasing.; assay: Test Example 2: herbicidal activity, application during weed generation in submerged conditions (symbol A); conditions: Table 23; application herbicide amount 320 g/ha; grade 0-5 by criteria of Test Example 1
Outline: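 Treatment timing was the one- to two-leaf stage, with diluted emulsifiable compound dropped onto the paddy water (depth 4 cm) over alluvial soil. All three species grew from a mixed sowing in a 25° C. to 30° C. greenhouse. Injury was judged by eye 3 weeks on.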

Cyperus difformis = assay: Test Example 3: herbicidal effect by foliage application, Wagner pot (symbol E); conditions: application herbicide amount 320 g/ha
Outline: as §4

Amaranthus retroflexus = assay: Test Example 4: herbicidal effect by soil treatment (symbol N); conditions: application herbicide amount 320 g/ha
Outline: as §1

soybean = assay: Test Example 5: effect on crop by foliage application, plastic box (symbol d); conditions: 320 g/ha, 3 weeks after application
Outline: as §2

Apera spica-venti [6] = assay: Test Example 5: herbicidal effect by foliage application, plastic box (symbol L); conditions: 320 g/ha, 3 weeks after application
Outline: as §3

Stellaria media = assay: Test Example 5: herbicidal effect by foliage application, plastic box (symbol P); conditions: 320 g/ha, 3 weeks after application
Outline: as §3

| Structure (SMILES) | L (Apera spica-venti) herbicidal effect grade (Apera spica-venti [1]) | b: directly sowed rice plant, effect on crop grade (rice plant) | H (Echinochloa crus-galli var. crus-galli) herbicidal effect grade [2] | Herbicidal effect grade, A: Echinochloa oryzacola Vasing. [3] | G: Setaria viridis, herbicidal effect grade (Setaria viridis) | f: beet, effect on crop grade (beet) | herbicidal effect on H (Echinochloa crus-galli var. crus-galli), grade 0-5 [4] | Herbicidal effect grade, A: Echinochloa oryzacola Vasing. [5] | herbicidal effect on E, grade 0-5 (Cyperus difformis) | d: soybean, effect on crop grade (soybean) | L: Apera spica-venti, herbicidal effect grade (Apera spica-venti [6]) | Herbicidal effect grade, L: Apera spica-venti (Apera spica-venti [1]) | b: directly sowed rice plant, effect on crop (criteria of Test Example 1) (rice plant) | Herbicidal effect grade, H: Echinochloa crus-galli var. crus-galli [2] | P: Stellaria media, herbicidal effect (criteria of Test Example 1) (Stellaria media) | G: Setaria viridis, herbicidal effect (criteria of Test Example 1) (Setaria viridis) | f: beet, effect on crop (criteria of Test Example 1) (beet) | Herbicidal effect grade, N: Amaranthus retroflexus (Amaranthus retroflexus) | d: soybean, effect on crop (criteria of Test Example 1) (soybean) | L: Apera spica-venti, herbicidal effect (criteria of Test Example 1) (Apera spica-venti [6]) | also measured |
| --- | --- | --- | --- | --- | --- | --- | --- | --- | --- | --- | --- | --- | --- | --- | --- | --- | --- | --- | --- | --- | --- |
| COCCOC1=C(c2c(C)cc(C)cc2C)C(=O)C(CC(C)=NOC)C1 (stereo not shown) [1-037] | 0 (Herbicidal ratio of 5% or lower (almost no effect)) | 0 (Herbicidal ratio of 5% or lower (almost no effect)) | 0 (Herbicidal ratio of 5% or lower (almost no effect)) | 0 (Herbicidal ratio of 5% or lower (almost no effect)) | 0 (Herbicidal ratio of 5% or lower (almost no effect)) | 0 (Herbicidal ratio of 5% or lower (almost no effect)) | 0 (Herbicidal ratio of 5% or lower (almost no effect)) | 0 (Herbicidal ratio of 5% or lower (almost no effect)) | 0 (Herbicidal ratio of 5% or lower (almost no effect)) | 0 (Herbicidal ratio of 5% or lower (almost no effect)) | 0 (Herbicidal ratio of 5% or lower (almost no effect)) |  |  |  |  |  |  |  |  |  | N (Amaranthus retroflexus) herbicidal effect grade (Amaranthus retroflexus): 0 (Herbicidal ratio of 5% or lower (almost no effect)) |
| CC(=O)CC1CC(O)=C(c2c(C)cc(-c3ccc(OC(F)(F)F)cc3)cc2C)C1=O (stereo not shown) [7-016] |  |  |  |  |  |  | 0 (Herbicidal ratio of 5% or lower (almost no effect)) |  | 0 (Herbicidal ratio of 5% or lower (almost no effect)) |  |  | 0 (Herbicidal ratio of 5% or lower (almost no effect)) | 0 (Herbicidal ratio of 5% or lower (almost no effect)) | 2 (Herbicidal ratio of 20% or higher and lower than 40%) | 0 (Herbicidal ratio of 5% or lower (almost no effect)) | 1 (Herbicidal ratio of 5% or higher and lower than 20%) | 0 (Herbicidal ratio of 5% or lower (almost no effect)) | 0 (Herbicidal ratio of 5% or lower (almost no effect)) | 0 (Herbicidal ratio of 5% or lower (almost no effect)) | 0 (Herbicidal ratio of 5% or lower (almost no effect)) |  |
| CC(=O)CC1CC(O)=C(c2c(C)cc(-c3ncccn3)cc2C)C1=O (stereo not shown) [7-017] |  |  |  |  |  |  | 5 (Herbicidal ratio of 90% or more (almost completely withered)) |  | 4 (Herbicidal ratio of 70% or higher and lower than 90%) |  |  | 0 (Herbicidal ratio of 5% or lower (almost no effect)) | 5 (Herbicidal ratio of 90% or more (almost completely withered)) | 0 (Herbicidal ratio of 5% or lower (almost no effect)) | 0 (Herbicidal ratio of 5% or lower (almost no effect)) | 5 (Herbicidal ratio of 90% or more (almost completely withered)) | 0 (Herbicidal ratio of 5% or lower (almost no effect)) | 0 (Herbicidal ratio of 5% or lower (almost no effect)) | 0 (Herbicidal ratio of 5% or lower (almost no effect)) | 3 (Herbicidal ratio of 40% or higher and lower than 70%) |  |
| CON=C(C)CC1CC(OC(=O)C2(C)CC2(Cl)Cl)=C(c2c(C)cc(C)cc2C)C1=O (stereo not shown) [1-036] | 5 (Herbicidal ratio of 90% or more (almost completely withered)) | 5 (Herbicidal ratio of 90% or more (almost completely withered)) | 5 (Herbicidal ratio of 90% or more (almost completely withered)) | 5 (Herbicidal ratio of 90% or more (almost completely withered)) | 5 (Herbicidal ratio of 90% or more (almost completely withered)) | 3 (Herbicidal ratio of 40% or higher and lower than 70%) | 5 (Herbicidal ratio of 90% or more (almost completely withered)) | 5 (Herbicidal ratio of 90% or more (almost completely withered)) | 5 (Herbicidal ratio of 90% or more (almost completely withered)) | 4 (Herbicidal ratio of 70% or higher and lower than 90%) | 5 (Herbicidal ratio of 90% or more (almost completely withered)) |  |  |  |  |  |  |  |  |  | N (Amaranthus retroflexus) herbicidal effect grade (Amaranthus retroflexus): 5 (Herbicidal ratio of 90% or more (almost completely withered)) |
| CC(=O)CC1CC(O)=C(c2c(C)cc(Oc3ccccc3)cc2C)C1=O (stereo not shown) [7-014] |  |  |  |  |  |  | 4 (Herbicidal ratio of 70% or higher and lower than 90%) |  | 2 (Herbicidal ratio of 20% or higher and lower than 40%) |  |  | 0 (Herbicidal ratio of 5% or lower (almost no effect)) | 3 (Herbicidal ratio of 40% or higher and lower than 70%) | 0 (Herbicidal ratio of 5% or lower (almost no effect)) | 0 (Herbicidal ratio of 5% or lower (almost no effect)) | 0 (Herbicidal ratio of 5% or lower (almost no effect)) | 0 (Herbicidal ratio of 5% or lower (almost no effect)) | 0 (Herbicidal ratio of 5% or lower (almost no effect)) | 0 (Herbicidal ratio of 5% or lower (almost no effect)) | 0 (Herbicidal ratio of 5% or lower (almost no effect)) |  |
| CC(CC1CC(O)=C(c2c(C)cc(Br)cc2C)C1=O)=NOCC(=O)N(C)C (mixture of isomers) [9-029] |  | 3 (Herbicidal ratio of 40% or higher and lower than 70%) |  |  | 3 (Herbicidal ratio of 40% or higher and lower than 70%) | 0 (Herbicidal ratio of 5% or lower (almost no effect)) |  | 0 (Herbicidal ratio of 5% or lower (almost no effect)) |  | 0 (Herbicidal ratio of 5% or lower (almost no effect)) | 4 (Herbicidal ratio of 70% or higher and lower than 90%) |  |  | 3 (Herbicidal ratio of 40% or higher and lower than 70%) |  |  |  | 0 (Herbicidal ratio of 5% or lower (almost no effect)) |  |  | P: Stellaria media, herbicidal effect grade (Stellaria media): 0 (Herbicidal ratio of 5% or lower (almost no effect)); H (Echinochloa crus-galli var. crus-galli) herbicidal effect grade ([4]; Table 24): 4 (Herbicidal ratio of 70% or higher and lower than 90%) |
